Tests used:
Assay type in all cases: cell-based, human
[1] = test system: SEM-type gastric cancer cell line; assay: Cell viability drug screen, AUC summary over SEM-type lines
Experimental: An FDA-approved small-molecule pharmacological compound (#L1300) and an anticancer compound for research (#L2000) were purchased from Selecckchem and a 10 mM solution was prepared in DMSO. A total of 1,345 compounds were tested the cell viability of the seven EMT gastric cancer cell lines.
Cells cultured for cell-based drug assay were inoculated into a 96-well white optical plate (Corning) at 5×10^3 cells per well. After 24 hours after inoculation, a 2.5 MJT (primary screen) or a half-log 12-serial diluent (secondary screen) of the pharmacological compound contained in DMSO is added to the cells with a robot using a BioMek FXp liquid processor (Beckman) to add to the cells at 50 mM. The final drug concentration in the 5 ns range and the DMSO specification control (0.5%) were calculated. The cells were then further incubated at 37° C. in a 5% CO2 incubator for 72 hours prior to measuring cell viability using the extra-GLO assay kit (Promega). The luminescent properties were measured after 15 min incubation at room temperature using a plate stacker equipped with a plate stacker. The normalized viability for the DMSO-based control was measured to generate a cell line-specific 12-point dose-response curve for each pharmacological compound, and then the area under the curve (AUC) was calculated using a trapezoidal method.

FU97 = assay: Cell viability drug screen, 12-point dose-response AUC; details: FU97 cells; 72 hours; 12-point dose-response
In short: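 Trapezoidal AUC of a 12-point, DMSO-normalized dose-response curve. Luminescent viability was measured after 72 h of exposure at 37° C to half-log serial dilutions (0.5% DMSO control), dosed 24 h after plating FU97 cells at 5×10^3 per well.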

[2] = test system: non-SEM-type gastric cancer cell line; assay: Cell viability drug screen, AUC summary over non-SEM-type lines; details: in the non-SEM-type gastric cancer cell line
SNU620 = assay: Cell viability drug screen, 12-point dose-response AUC; details: SNU620 cells; 72 hours; 12-point dose-response
In short: (§1)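 AUC values represent the area under DMSO-normalized 12-point curves, computed by trapezoid rule and averaged over repeated experiments. Each EMT-type gastric line was exposed to half-log serial concentrations for 72 h at 37 °C, and viability was measured with a Glo luminescence kit.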

SNU1 = assay: as above; details: SNU1 cells; 72 hours; 12-point dose-response
In short: as §1

NCC24 = assay: as above; details: NCC24 cells; 72 hours; 12-point dose-response
In short: as §1

MKN45 = assay: as above; details: MKN45 cells; 72 hours; 12-point dose-response
In short: (§2)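 Dose-response AUC reflects 72 h drug exposure of gastric cancer cells in a 12-point, half-log format, with viability read by luminescence and normalized to DMSO (0.5%).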

MKN28 = assay: as above; details: MKN28 cells; 72 hours; 12-point dose-response
In short: as §1

SNU638 = assay: as above; details: SNU638 cells; 72 hours; 12-point dose-response
In short: as §1

YCC2 = assay: as above; details: YCC2 cells; 72 hours; 12-point dose-response
In short: as §1

SNU216 = assay: as above; details: SNU216 cells; 72 hours; 12-point dose-response
In short: as §2

MKN1 = assay: as above; details: MKN1 cells; 72 hours; 12-point dose-response
In short: as §1

KATO3 = assay: as above; details: KATO3 cells; 72 hours; 12-point dose-response
In short: as §1

YCC3 = assay: as above; details: YCC3 cells; 72 hours; 12-point dose-response
In short: as §1

SNU719 = assay: as above; details: SNU719 cells; 72 hours; 12-point dose-response
In short: as §2

NCC20 = assay: as above; details: NCC20 cells; 72 hours; 12-point dose-response
In short: as §1

SNU601 = assay: as above; details: SNU601 cells; 72 hours; 12-point dose-response
In short: as §1

OCUM1 = assay: as above; details: OCUM1 cells; 72 hours; 12-point dose-response
In short: as §1

NCI_N87 = assay: as above; details: NCI_N87 cells; 72 hours; 12-point dose-response
In short: as §1

SNU1750 = assay: as above; details: SNU1750 cells; 72 hours; 12-point dose-response
In short: as §1

MKN74 = assay: as above; details: MKN74 cells; 72 hours; 12-point dose-response
In short: as §2

SNU484 = assay: as above; details: SNU484 cells; 72 hours; 12-point dose-response
In short: as §1

NCC59 = assay: as above; details: NCC59 cells; 72 hours; 12-point dose-response
In short: as §1

Hs746T = assay: as above; details: Hs746T cells; 72 hours; 12-point dose-response
In short: as §1

NCC19 = assay: as above; details: NCC19 cells; 72 hours; 12-point dose-response
In short: as §1

SNU16 = assay: as above; details: SNU16 cells; 72 hours; 12-point dose-response
In short: as §1

SK4 = assay: as above; details: SK4 cells; 72 hours; 12-point dose-response
In short: as §1

SNU1967 = assay: as above; details: SNU1967 cells; 72 hours; 12-point dose-response
In short: as §1

AGS = assay: as above; details: AGS cells; 72 hours; 12-point dose-response
In short: as §2

YCC11 = assay: as above; details: YCC11 cells; 72 hours; 12-point dose-response
In short: as §1

SNU668 = assay: as above; details: SNU668 cells; 72 hours; 12-point dose-response
In short: as §1

Row | Structure (SMILES) | normalized viability AUC [1] | area under the viability curve (AUC), normalized (FU97) | AUC value [2] | area under the viability curve (AUC), normalized (SNU620) | area under the viability curve (AUC), normalized (SNU1) | area under the viability curve (AUC), normalized (NCC24) | area under the viability curve (AUC), normalized (MKN45) | area under the viability curve (AUC), normalized (MKN28) | area under the viability curve (AUC), normalized (SNU638) | area under the viability curve (AUC), normalized (YCC2) | area under the viability curve (AUC), normalized (SNU216) | area under the viability curve (AUC), normalized (MKN1) | area under the viability curve (AUC), normalized (KATO3) | area under the viability curve (AUC), normalized (YCC3) | area under the viability curve (AUC), normalized (SNU719) | area under the viability curve (AUC), normalized (NCC20) | area under the viability curve (AUC), normalized (SNU601) | area under the viability curve (AUC), normalized (OCUM1) | area under the viability curve (AUC), normalized (NCI_N87) | area under the viability curve (AUC), normalized (SNU1750) | also measured
1 | COc1ncc(-c2ccc3nccc(-c4ccnnc4)c3c2)cc1NS(=O)(=O)c1ccc(F)cc1F [GSK2126458] | negative | −1.393 | high | −0.7945 | −0.6492 | −1.197 | 0.05353 | 0.15 | 0.9531 | −0.9259 | −0.4775 | −1.1278 | 3.911 | 0.9745 | 5.211 | −1.107 | 0.1047 | 1.227 | −1.3463 | −0.5071 | area under the viability curve (AUC), normalized (MKN74): 0; area under the viability curve (AUC), normalized (SNU484): 0.4641; area under the viability curve (AUC), normalized (NCC59): 2.2975; area under the viability curve (AUC), normalized (Hs746T): −0.063; area under the viability curve (AUC), normalized (NCC19): 0.4665; area under the viability curve (AUC), normalized (SNU16): 0.6494; area under the viability curve (AUC), normalized (SK4): −2.466; area under the viability curve (AUC), normalized (SNU1967): 1.044; area under the viability curve (AUC), normalized (AGS): −2.286; area under the viability curve (AUC), normalized (YCC11): −1.373; area under the viability curve (AUC), normalized (SNU668): 1.587
2 | Cc1cnc(NC(=O)Nc2cc(Br)c(C)cc2OC[C@@H]2CNCCO2)cn1 [LY2603618] | negative | 0.7111 | high | 0 | −0.3399 | −1.445 | −0.9472 | −0.1902 | −0.05048 | 0.04045 | 0.2462 | −1.023 | 1.256 | 0.2305 | 2.404 | 0.01673 | 0.2367 | −0.6831 | 0.8771 | −0.4819 | area under the viability curve (AUC), normalized (MKN74): −0.9084; area under the viability curve (AUC), normalized (SNU484): 0.3141; area under the viability curve (AUC), normalized (NCC59): 0.9326; area under the viability curve (AUC), normalized (Hs746T): −0.107; area under the viability curve (AUC), normalized (NCC19): 1.2209; area under the viability curve (AUC), normalized (SNU16): 1.467; area under the viability curve (AUC), normalized (SK4): −1.698; area under the viability curve (AUC), normalized (SNU1967): −0.9616; area under the viability curve (AUC), normalized (AGS): −0.3593; area under the viability curve (AUC), normalized (YCC11): −2.027; area under the viability curve (AUC), normalized (SNU668): 0.1713
